Laboratory results reported in ChEMBL document CHEMBL1130416, “Synthesis and biological activities of (R)-5,6-dihydro-N,N-dimethyl-4H-imidazo[4,5,1-ij]quinolin-5-amine and its metabolites” (J Med Chem, 1997).

Tests used:
[1] = biological target: T1, 5-hydroxytryptamine receptor 1A (Homo sapiens, UniProt P08908)
T1 sequence (P08908 whole entry): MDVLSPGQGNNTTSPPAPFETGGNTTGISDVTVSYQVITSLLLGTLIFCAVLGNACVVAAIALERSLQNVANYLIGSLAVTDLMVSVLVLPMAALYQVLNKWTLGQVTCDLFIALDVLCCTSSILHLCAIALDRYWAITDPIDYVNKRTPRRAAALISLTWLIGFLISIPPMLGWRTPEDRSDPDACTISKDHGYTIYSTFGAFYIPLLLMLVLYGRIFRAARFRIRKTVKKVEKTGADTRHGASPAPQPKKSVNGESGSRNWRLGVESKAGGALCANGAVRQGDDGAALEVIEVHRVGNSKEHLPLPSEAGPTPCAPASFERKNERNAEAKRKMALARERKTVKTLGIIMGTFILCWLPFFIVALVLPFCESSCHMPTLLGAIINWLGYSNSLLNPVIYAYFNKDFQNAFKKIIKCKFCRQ
Description: Binding affinity towards Serotonin 5-hydroxytryptamine 1A receptor by displacement of [3H]-(+)-8-OH-DPAT.

D(2) dopamine receptor [2] = biological target: T2, D(2) dopamine receptor (Homo sapiens, UniProt P14416)
Description: Binding affinity towards Dopamine receptor D2 by displacement of [3H]U-86170.

[3] = Metabolism of compound in monkey S9 microsomes ('+''indicates <20% largest observed peak); format: ADME, Microsome; conditions: cercopithecidae
[4] = Metabolism of compound in human liver slices (male) ('+''indicates <20% largest observed peak); format: ADME, tissue-based
Mus musculus [5] = species: Mus musculus; assay: Metabolism of compound in mouse S9 microsomes ('+''indicates <20% largest observed peak); format: ADME
Rattus norvegicus [6] = species: Rattus norvegicus; assay: Metabolism of compound in rat S9 microsomes; Trace; format: ADME
[7] = Metabolism of compound in rabbit S9 microsomes ('+''indicates <20% largest observed peak); format: ADME, Oryctolagus cuniculus, Microsome
D(3) dopamine receptor [8] = biological target: T3, D(3) dopamine receptor (Homo sapiens, UniProt P35462)
Description: Binding affinity towards Dopamine receptor D3 by displacement of [3H](+)-7-OH-DPAT.

Mus musculus [9] = assay: Hypothermic effects in mice when administered orally.; format: functional; conditions: po
Mus musculus [10] = assay: Hypothermic effects in mice when administered subcutaneously.; format: functional; conditions: sc
[11] = biological target: T1, 5-hydroxytryptamine receptor 1A; remark: listed apart in the source
D(2) dopamine receptor [12] = biological target: T2, D(2) dopamine receptor; remark: listed apart in the source
D(3) dopamine receptor [13] = biological target: T3, D(3) dopamine receptor; remark: listed apart in the source
Canis familiaris [14] = species: Canis familiaris; assay: Metabolism of compound in dog S9 microsomes ('++++' indicates largest observed peak); format: ADME, Canis lupus familiaris
[15] = Metabolism of compound in monkey S9 microsomes ('+++'indicates 50-80% largest observed peak); format: ADME, Microsome; conditions: cercopithecidae
[16] = Metabolism of compound in human liver slices (male) ('++++' indicates largest observed peak); format: ADME, tissue-based
[17] = Metabolism of compound in human microsomes ('++++' indicates largest observed peak); format: ADME, Microsome
Mus musculus [18] = species: Mus musculus; assay: Metabolism of compound in Mouse S9 microsomes ('++++'indicates largest observed peak); format: ADME
Rattus norvegicus [19] = species: Rattus norvegicus; assay: Metabolism of compound in rat S9 microsomes ('++++' indicates largest observed peak); format: ADME
[20] = Metabolism of compound in mini pig S9 microsomes ('++++' indicates largest observed peak); format: ADME, Sus scrofa, Microsome
Rattus norvegicus [21] = species: Rattus norvegicus; assay: The stability relative to the U-93385 compound.
Canis familiaris [22] = species: Canis familiaris; assay: Metabolism of compound in dog S9 microsomes ('++''indicates 20-50% largest observed peak); format: ADME, Canis lupus familiaris
[23] = Metabolism of compound in monkey S9 microsomes ('++''indicates 20-50% largest observed peak); format: ADME, Microsome; conditions: cercopithecidae
[24] = Metabolism of compound in human liver slices (male) ('++''indicates 20-50% largest observed peak); format: ADME, tissue-based
[25] = Metabolism of compound in human microsomes ('+''indicates <20% largest observed peak); format: ADME, Microsome
[26] = Metabolism of compound in mini pig S9 microsomes ('+''indicates <20% largest observed peak); format: ADME, Sus scrofa, Microsome
Rattus norvegicus [27] = species: Rattus norvegicus; assay: Metabolism of compound in rat S9 microsomes ('+''indicates <20% largest observed peak); format: ADME
Canis familiaris [28] = species: Canis familiaris; assay: Metabolism of compound in dog S9 microsomes; Trace; format: ADME, Canis lupus familiaris
[29] = Metabolism of compound in monkey S9 microsomes ('++++' indicates largest observed peak); format: ADME, Microsome; conditions: cercopithecidae
[30] = Metabolism of compound in human microsomes; Trace; format: ADME, Microsome
Mus musculus [31] = species: Mus musculus; assay: Metabolism of compound in mouse S9 microsomes ('++++' indicates largest observed peak); format: ADME
[32] = Metabolism of compound in rabbit S9 microsomes ('++++' indicates largest observed peak); format: ADME, Oryctolagus cuniculus, Microsome

T2 sequence (P14416 whole entry): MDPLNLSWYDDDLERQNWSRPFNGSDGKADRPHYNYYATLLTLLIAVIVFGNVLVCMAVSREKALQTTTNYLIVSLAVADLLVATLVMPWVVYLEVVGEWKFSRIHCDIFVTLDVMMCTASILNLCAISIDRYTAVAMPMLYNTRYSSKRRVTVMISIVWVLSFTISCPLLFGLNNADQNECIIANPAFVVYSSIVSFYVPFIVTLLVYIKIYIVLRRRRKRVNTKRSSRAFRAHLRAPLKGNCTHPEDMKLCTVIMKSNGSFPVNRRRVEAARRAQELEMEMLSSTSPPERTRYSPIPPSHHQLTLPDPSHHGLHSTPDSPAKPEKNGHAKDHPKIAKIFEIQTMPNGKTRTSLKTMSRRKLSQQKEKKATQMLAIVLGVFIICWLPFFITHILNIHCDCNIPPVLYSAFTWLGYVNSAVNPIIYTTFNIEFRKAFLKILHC
T3 sequence (P35462 whole entry): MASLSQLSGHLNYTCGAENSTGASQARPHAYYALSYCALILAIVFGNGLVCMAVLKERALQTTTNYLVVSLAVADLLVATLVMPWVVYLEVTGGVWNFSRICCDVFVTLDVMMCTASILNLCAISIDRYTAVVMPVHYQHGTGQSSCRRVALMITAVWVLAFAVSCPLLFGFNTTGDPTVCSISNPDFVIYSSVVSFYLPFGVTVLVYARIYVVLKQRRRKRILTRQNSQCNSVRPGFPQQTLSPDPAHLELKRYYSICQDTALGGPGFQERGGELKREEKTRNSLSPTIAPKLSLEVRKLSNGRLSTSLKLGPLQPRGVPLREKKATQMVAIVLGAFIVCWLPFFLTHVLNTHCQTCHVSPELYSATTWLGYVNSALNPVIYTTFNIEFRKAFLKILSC

SMILES	Ki [1] [nM]	Ki (D(2) dopamine receptor [2]) [nM]	Metabolism [7]	Ki (D(3) dopamine receptor [8]) [nM]	ED50 (Mus musculus [9]) [mg/kg]	ED50 (Mus musculus [10]) [mg/kg]	Ki [11]	Ki (D(2) dopamine receptor [12])	Ki (D(3) dopamine receptor [13])	other results
CCCN(CCC)CCc1cccc2c1CC(=O)N2 [ROPINIROLE]	1710	7.2								
CN[C@@H]1Cc2cccc3[nH]c(=O)n(c23)C1 [SUMANIROLE]	73		Partially active	2330	0.41	0.73				Metabolism [3]: Partially active; Metabolism [4]: Partially active; Metabolism (Mus musculus [5]): Partially active; Metabolism (Rattus norvegicus [6]): Partially active
CN[C@H]1Cc2cccc3nc(O)n(c23)C1							Not Active	Not Active	Not Active	
CC(C)C[C@H]1C(=O)N2CCC[C@H]2[C@]2(O)O[C@](NC(=O)[C@@H]3C=C4c5cccc6[nH]c(Br)c(c56)C[C@H]4N(C)C3)(C(C)C)C(=O)N12 [BROMOCRIPTINE]	24	10		87						
CN(C)[C@@H]1Cc2cccc3ncn(c23)C1	> 3520	1280	Partially active	2950	0.073	0.073				Metabolism (Canis familiaris [14]): Partially active; Metabolism [15]: Partially active; Metabolism [16]: Partially active; Metabolism [17]: Partially active; Metabolism (Mus musculus [18]): Partially active; Metabolism (Rattus norvegicus [19]): Partially active; Metabolism [20]: Partially active; Relative stability (Rattus norvegicus [21]): 1
CCCN[C@@H]1Cc2cccc3nc(O)n(c23)C1				36	0.41	0.01				
CN(C)[C@H]1Cc2cccc3ncn(c23)C1						17.3	Not Active	Not Active	Not Active	
CN[C@@H]1Cc2cccc3ncn(c23)C1	> 3260	355	Partially active	2460	0.73	0.31				Metabolism (Canis familiaris [22]): Partially active; Metabolism [23]: Partially active; Metabolism [24]: Partially active; Metabolism [25]: Partially active; Metabolism (Mus musculus [5]): Partially active; Metabolism [26]: Partially active; Metabolism (Rattus norvegicus [27]): Partially active; Relative stability (Rattus norvegicus [21]): 0.86
CN(C)[C@@H]1Cc2cccc3[nH]c(=O)n(c23)C1		12		1930	1.3	0.41				Metabolism (Canis familiaris [28]): Partially active; Metabolism [29]: Partially active; Metabolism [24]: Partially active; Metabolism [30]: Partially active; Metabolism (Mus musculus [31]): Partially active; Metabolism [26]: Partially active; Metabolism (Rattus norvegicus [27]): Partially active; Metabolism [32]: Partially active
CN(C)[C@H]1Cc2cccc3nc(O)n(c23)C1						17.3	Not Active	Not Active	Not Active	
